US12685733B2, “Indole molecules and use thereof in the inhibition of DNA polymerases” (BioVentures, LLC, priority 2019, dated 2026)

What was measured:
Tb pol I = biological target: T1, Tb pol I (Mycobacterium tuberculosis, UniProt P9WNU5); test: Fluorescence-based polymerase assay, other pol families; type: biochemical; settings: 10 μM; 10 nM Tb pol I (A-family)
T1 construct: made in house

hpol η = biological target: T2, hpol η (Homo sapiens, UniProt Q9Y253); test: Gel-based primer extension assay; type: biochemical; settings: 10 μM; 2 nM hpol η
T2 construct: hpol η (residues 1-437); made in house
T2 sequence (Q9Y253 1-437): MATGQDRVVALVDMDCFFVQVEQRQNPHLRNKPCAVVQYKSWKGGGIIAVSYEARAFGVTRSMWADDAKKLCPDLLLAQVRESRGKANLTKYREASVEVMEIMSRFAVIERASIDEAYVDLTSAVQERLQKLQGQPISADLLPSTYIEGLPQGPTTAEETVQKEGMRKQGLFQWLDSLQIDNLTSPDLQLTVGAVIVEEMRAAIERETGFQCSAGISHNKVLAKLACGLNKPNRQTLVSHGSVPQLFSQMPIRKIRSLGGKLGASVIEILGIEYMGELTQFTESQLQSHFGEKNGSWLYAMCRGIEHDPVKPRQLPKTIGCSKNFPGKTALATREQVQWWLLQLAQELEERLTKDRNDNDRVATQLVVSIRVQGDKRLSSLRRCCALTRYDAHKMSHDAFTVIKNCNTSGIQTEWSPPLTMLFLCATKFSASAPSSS

hpol κ = biological target: T3, hpol κ (Homo sapiens, UniProt Q9UBT6); test: Gel-based primer extension assay; type: biochemical; set-up: hpol κ (residues 19-526); made in house; settings: 10 μM; 1 nM hpol κ
T3 sequence (Q9UBT6 19-526): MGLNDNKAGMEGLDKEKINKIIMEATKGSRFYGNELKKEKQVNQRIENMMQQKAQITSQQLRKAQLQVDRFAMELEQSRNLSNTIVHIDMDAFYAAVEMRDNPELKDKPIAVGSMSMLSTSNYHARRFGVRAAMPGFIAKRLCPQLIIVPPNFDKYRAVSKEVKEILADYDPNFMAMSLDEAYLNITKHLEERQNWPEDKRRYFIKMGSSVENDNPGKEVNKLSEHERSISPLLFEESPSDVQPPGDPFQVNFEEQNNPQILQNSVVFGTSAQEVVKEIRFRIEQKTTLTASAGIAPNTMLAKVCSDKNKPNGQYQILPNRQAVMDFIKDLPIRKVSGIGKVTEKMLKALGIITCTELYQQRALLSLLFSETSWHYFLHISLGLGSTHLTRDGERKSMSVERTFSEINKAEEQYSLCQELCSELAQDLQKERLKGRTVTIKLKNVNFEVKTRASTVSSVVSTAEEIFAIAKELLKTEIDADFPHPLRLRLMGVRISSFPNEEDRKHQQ

[1] = tested on: hpol κ-deficient HAP-1 cells; test: Clonogenic survival assay; type: cell-based, human
Experimental: HAP-1 and hpol κ^KO cells were purchased from Horizons Discovery Group LLC (Cambridge, UK). The company generated the Hap1 cells using CRISPR-Cas9 technology and the elimination of kappa expression was confirmed by Sanger sequence genome editing. We further confirmed the elimination of hpol κ protein expression by Western blotting (data not shown). Hap1 cells were cultured in Iscove's modified Dulbecco's medium (IMDM; Invitrogen, CA, USA) supplemented with 10% (v/v) fetal bovine serum (FBS; Atlas Biologicals, CO, USA) and 1% (v/v) antibiotic/antimycotic solution (Sigma-Aldrich, MO, USA).T98G cells were purchased from ATCC (American Type Culture Collection, VA, USA). T98G cells were cultured in MEM (Minimum Essential Medium) (Invitrogen, CA, USA) supplemented with 10% (v/v) FBS (Fetal Bovine Serum, Atlas Biologicals, CO, USA) and antibiotic/antimycotic solution (1%, v/v) (Sigma-Aldrich, MO, USA). NT2 cells were kindly provided by Dr. Michael Borrelli (University of Arkansas for Medical Sciences, AR, USA). NT2 cells were cultured in DMEM/F12 (Dulbecco's Modified Eagle Medium) supplemented with 10% (v/v) FCS (Fetal Calf Serum) and antibiotic/antimycotic solution (1%) (Sigma-Aldrich, MO, USA).
To measure the clonogenic ability, cells were plated (500 cells per well) in 6-well dishes. In the case of HAP-1 cells, cells were treated the following day after plating, with temozolomide (TMZ) (0, 1, 5, 50, 125 and 250 μM) alone or in combination with UAMS-48 (0.1 and 0.5 μM) for 1 hour. In the case of T98G and NT2 cells, treatment was done on the following day of plating, with increasing concentrations of TMZ alone or in combination with UAMS-48 (50 nM) for 3 hrs. T98G and NT2 cells were treated with increasing concentrations of UAMS-48 for 3 hrs. After treatment, cells were cultured in fresh IMDM supplemented with 10% FBS for 10 days. The colonies were gently washed with 1×PBS, fixed with 3.7% (v/v) formaldehyde for 20 mins at RT and stained with crystal violet solution (Sigma-Aldrich, MO, USA) for 30 mins at RT.
The fixed crystal-violet stained colonies in each 6-well plate were examined under an EVOS XL Core imaging system (Thermo Fisher Scientific) under bright-field, and the colonies were inspected manually. […] Color images of each 6-well plate were captured and opened for processing using the Fiji version of the freely available software ImageJ. Setting the appropriate threshold for counting colonies for each cell type, corresponding to the respective radii calculated previously, the colonies were counted using the Colony Area plugin of ImageJ. Manual counting was performed on a few wells picked randomly, and the colony count so obtained was tallied with the number obtained using ImageJ, to ensure they matched reasonably. All experiments were performed in triplicate, and the colony number for each well was expressed as the mean (±standard deviation). The results were plotted to generate a dose response curve for TMZ treatment using the software Graphpad Prism, where the mean number of colonies was plotted along the Y-axis, and the TMZ concentration along the X-axis. Bar charts comparing the mean number of colonies as a function of the various conditions were also plotted for both cell types. Combination index values were calculated using the Chou-Talalay method (Chou 2010).

T1 sequence (P9WNU5 whole entry): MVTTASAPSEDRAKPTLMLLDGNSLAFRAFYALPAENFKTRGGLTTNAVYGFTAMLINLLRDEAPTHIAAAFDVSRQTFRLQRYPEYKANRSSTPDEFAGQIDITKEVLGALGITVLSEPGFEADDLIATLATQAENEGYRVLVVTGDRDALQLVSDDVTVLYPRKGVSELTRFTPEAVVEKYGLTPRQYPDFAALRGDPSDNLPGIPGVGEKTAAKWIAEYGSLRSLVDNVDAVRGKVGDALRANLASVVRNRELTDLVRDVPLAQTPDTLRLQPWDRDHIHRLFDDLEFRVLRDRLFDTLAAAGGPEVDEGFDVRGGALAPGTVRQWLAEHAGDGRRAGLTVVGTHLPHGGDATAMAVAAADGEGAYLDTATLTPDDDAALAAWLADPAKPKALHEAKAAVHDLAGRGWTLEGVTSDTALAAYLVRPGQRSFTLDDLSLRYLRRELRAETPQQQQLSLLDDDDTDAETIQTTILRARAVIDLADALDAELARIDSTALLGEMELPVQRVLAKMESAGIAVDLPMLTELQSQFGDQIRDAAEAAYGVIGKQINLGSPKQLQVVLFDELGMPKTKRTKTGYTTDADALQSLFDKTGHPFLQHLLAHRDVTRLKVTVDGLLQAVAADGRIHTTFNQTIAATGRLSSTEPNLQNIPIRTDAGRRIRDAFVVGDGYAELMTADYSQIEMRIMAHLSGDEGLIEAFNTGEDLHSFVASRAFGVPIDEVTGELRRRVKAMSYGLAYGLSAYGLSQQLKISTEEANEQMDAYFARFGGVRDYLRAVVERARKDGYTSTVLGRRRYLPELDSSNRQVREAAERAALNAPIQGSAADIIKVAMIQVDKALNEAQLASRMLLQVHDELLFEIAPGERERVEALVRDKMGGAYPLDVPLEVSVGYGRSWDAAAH

Cl.[H]/N=C(\N)NN=Cc1cn(C(=O)c2cccc3ccccc23)c2ccc(Cl)cc12 [IAG-10, (E)-2-((1-(1-naphthoyl)-5-chloro-1H-indol-3-y1)methylene)hydrazine-1-carboximidamide hydrochloride]
polymerase activity relative to DMSO control (Tb pol I): only hpol κ activity was inhibited | polymerase activity relative to DMSO control (hpol η): only hpol κ was inhibited | polymerase activity relative to DMSO control (hpol κ): only hpol κ was inhibited | colony formation, compound alone ([1]; 0.5 μM IAG-10): does not impair colony formation | colony forming ability, co-treatment over TMZ alone ([1]; TMZ + 0.5 μM IAG-10): did not show any significant reduction in colony forming ability
